melting point: 183 °C
SMILES: CCn1ccc2c(Nc3ccc(Cl)cc3)nc(C#N)nc21 [Example 27, 4-[(4-Chlorophenyl)amino]-7-ethyl-7H-pyrrolo[2,3-d]pyrimidine-2-carbonitrile]
